Where a SMILES comes first, the peptide text is derived from it. The star is where a group is joined. Cbz = O=C(OCc1ccccc1)*; CH2F = FC*
Key:
[1] = test system: IκB / NFκB in HT-29 cells; test: IκB and nuclear NFκB western blot, HT-29; type: cell-based, human; details: HT-29, vs DMSO
Experimental: Bone marrow derived macrophages (BMDM) were prepared as previously described by methods known to those skilled in the art. On day 5 of culture, 2×10^6 BMDM were seeded in 6-well plates and the following day were primed for 18 h with TNFα (20 ng/mL), followed by 1 h stimulation with E. faecalis (1 μg/mL; ATCC). Stimulation with E. faecalis was conducted in the presence of the zLLY-CH2F calpain-2 inhibitor (20 μg/mL) or DMSO as a control. Media was removed from treated BMDM, centrifuged at 300×g for 5 min and supernatent analyzed using the Cytometric Bead Array Mouse Inflammation Kit (BD Biosciences, San Jose, Calif.). Cytokine data were analyzed using Flowjo software (Ashland, Oreg.) and GraphPad Prism version 4.0 (GraphPad, La Jolla, Calif.). Cell pellets were lysed and analyzed for IκB and NFκB by Western blot as previously described (Miyazaki, T. et al. Journal of Atherosclerosis and Thrombosis 20, 228-237, 2013). […] Each day 4 wells were quantified using Celltiter MTS reagent (Promega) and the resulting signal was used to generate a proliferation curve. Calpain activity was measured using a Calpain activity assay kit (BioVision, Inc., Milpitas, Calif.) as previously described. Colons were harvested on day 4 and calpain activity measured. […]

[2] = biological target: T1, m-calpain (Homo sapiens, UniProt P17655); test: irreversible inhibition of m-calpain, k2 rate constant; type: biochemical; details: m-calpain / cathespin L, 28,900/680,000
T1 sequence (P17655 1-700): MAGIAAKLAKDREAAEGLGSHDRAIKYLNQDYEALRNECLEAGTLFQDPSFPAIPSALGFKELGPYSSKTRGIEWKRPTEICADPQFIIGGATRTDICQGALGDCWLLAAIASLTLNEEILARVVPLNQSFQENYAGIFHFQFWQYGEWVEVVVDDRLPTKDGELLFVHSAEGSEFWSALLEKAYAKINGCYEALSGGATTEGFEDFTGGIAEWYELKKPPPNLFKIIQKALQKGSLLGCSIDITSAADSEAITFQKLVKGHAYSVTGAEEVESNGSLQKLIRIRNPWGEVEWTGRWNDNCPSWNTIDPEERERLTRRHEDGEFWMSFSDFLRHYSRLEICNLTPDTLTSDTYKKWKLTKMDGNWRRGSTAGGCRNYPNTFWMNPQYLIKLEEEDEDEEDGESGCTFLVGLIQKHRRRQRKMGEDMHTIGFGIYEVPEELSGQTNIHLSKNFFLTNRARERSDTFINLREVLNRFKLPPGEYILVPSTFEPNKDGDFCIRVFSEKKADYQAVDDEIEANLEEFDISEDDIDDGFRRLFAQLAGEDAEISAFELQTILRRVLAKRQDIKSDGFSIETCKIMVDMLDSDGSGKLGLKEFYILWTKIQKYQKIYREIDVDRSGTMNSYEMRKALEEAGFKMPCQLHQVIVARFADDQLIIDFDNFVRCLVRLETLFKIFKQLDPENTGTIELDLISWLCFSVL
T1 sequence (P04632 1-268 partner): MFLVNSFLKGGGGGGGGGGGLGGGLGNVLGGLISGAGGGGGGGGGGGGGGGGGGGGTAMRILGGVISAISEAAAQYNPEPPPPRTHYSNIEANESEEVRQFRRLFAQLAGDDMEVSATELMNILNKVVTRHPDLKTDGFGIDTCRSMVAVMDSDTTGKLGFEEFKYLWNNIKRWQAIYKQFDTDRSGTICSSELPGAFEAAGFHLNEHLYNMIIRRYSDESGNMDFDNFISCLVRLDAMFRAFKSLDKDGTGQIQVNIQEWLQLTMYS
Excerpt: In some aspects, the m-calpain selective inhibitor can be an irreversible inhibitor of m-calpain. The inhibition is made […] by the nucleophilic attack of the active cysteine in m-calpain to the electrophilic moeity of the m-calpain selective inhibitor to form a covalent bond (Moldoveanu, T.; Campbell, R. L.; Cuerrier, D.; Davies, P. L. J. Mol. Biol., 343, 1313-1326, 2004; Carragher, N. O., Curr. Pharm. Des., 12, 615-638, 2006). […] However, ZZ-LLY-CH2F can inhibit the off-target protein cathespin L with a rate constant k2 of 680,000 M^−1s^−1 (Li, Q.; Hanzlik, R. P.; Weaver, R. F.; Schoenbrunn, E., Biochemistry, 45:701-708, 2006). Thus, the ratio of inhibition rates k2 of the on-target m-calpain to an off-target protein can be around 28,900/680,000, or about 0.041. The ratio of inhibition rates k2 of the on-target m-calpain to an off-target protein can be greater than about 0.5, or greater than 0.1, or greater than 0.05, or greater than 0.01.

- ratio of inhibition rates k2 of on-target m-calpain to off-target protein [2]: about 0.041
SMILES: CC(C)C[C@H](NC(=O)OCc1ccccc1)C(=O)N[C@@H](CC(C)C)C(=O)N[C@@H](Cc1ccc(O)cc1)C(=O)CF [zLLY-CH2F, Z-LLY-CH2F] (Cbz-Leu-Leu-Tyr-CH2F)
- IκB degradation [1]: reduced
- NFκB nuclear localization [1]: reduced

Reference: patent publication US20160279187A1, “CALPAIN INHIBITORS FOR IBD AND COLORECTAL CANCER TREATMENT” (UNIVERSITY OF HAWAII, priority 2013, published 2016)
